Experimental data reported in patent US12060355B2, “Compounds for use in the treatment of fascioliasis” (Merck Patent GmbH, priority 2018, dated 2024).
Read-outs that look alike come from different tables or passages of the source.

Legend:
human MRC-5 cell line = assay: Cytotoxicity against human MRC-5 cell line; assay type: cell-based
Description: (§1) The routine biological assays using adult or juvenile S. mansoni worms and cytotoxicity assays using MRC-5 cells have been disclosed previously in Mansour, N. R., et al. (2016). “High Throughput Screening Identifies Novel Lead Compounds with Activity against Larval, Juvenile and Schistosoma mansoni PLoS Negl Trop Dis 10(4): e0004659. Cytotoxicity assays using the HepG2 cell line were carried out as described in Molecular Diversity (2015) 19, 251-261. • (a) F. hepatica adult fluke motility score tested at 5 μM. Motility is scored as per the table below: • Good movement Score 1 • (Curled, sticking on wall, movement on petri plate or conical flask) • Moderate movement Score 2 • (Less vigor but more than 10 seconds pulses or peristaltic waves) • Resting Score 3 • (Less than 10 second pulses in head and body) • Apathetic Score 4 • (Head and body with less than 2 second pulses) • Faint movement of suckers Score 5 • (Movement of oral or ventral suckers only, whole body paralyzed) • Inert Score 6 • (No movement at all or dead) • (b) S. mansoni adult worms • (c) S. mansoni juvenile worms • (d) S. haemotobium adult worms • (e) Cytotoxicity against human MRC-5 cell line • (f) Cytotoxicity against human HepG2 cell lines

human HepG2 cell lines = assay type: cell-based; details: human HepG2 cell line
S. mansoni adult worms = assay: S. mansoni adult worm assay, in vitro; assay type: cell-based; details: Schistosoma mansoni, read-out: S. mansoni Adult
Description: as §1

[1] = test system: S. mansoni juvenile worms; assay: S. mansoni juvenile worm assay, in vitro; assay type: cell-based; details: Schistosoma mansoni, read-out: S. mansoni Juvenile
Description: as §1

F. hepatica adult fluke = F. hepatica adult fluke motility score, in vitro; assay type: cell-based, Fasciola hepatica; set-up: key: Good movement Score 1 • (Curled, sticking on wall, movement on petri plate or conical flask); Moderate movement Score 2 • (Less vigor but more than 10 seconds pulses or peristaltic waves); Resting Score 3 • (Less than 10 second pulses in head and body); Apathetic Score 4 • (Head and body with less than 2 second pulses); Faint movement of suckers Score 5 • (Movement of oral or ventral suckers only, whole body paralyzed); Inert Score 6 • (No movement at all or dead); details: adult fluke, 5 μM; for F. hepatica motility score after 24 h: score 1 (good movement) to 6 (inert); for F. hepatica motility score after 48 h / F. hepatica motility score after 72 h: score 1 to 6 (inert)
Excerpt: The routine biological assays using adult liver fluke are described in Alessandra Crusco, Cinzia Bordoni, Anand Chakroborty, Kezia C. L. Whatley, Helen Whiteland, Andrew D. Westwell, Karl F. Hoffmann, “Design, synthesis and anthelmintic activity of 7-keto-sempervirol analogues”, European Journal of Medicinal Chemistry, Volume 152, 2018, Pages 87-100.
The routine biological assays using adult or juvenile S. mansoni worms and cytotoxicity assays using MRC-5 cells have been disclosed previously in Mansour, N. R., et al. (2016). “High Throughput Screening Identifies Novel Lead Compounds with Activity against Larval, Juvenile and Schistosoma mansoni PLoS Negl Trop Dis 10(4): e0004659. […] Motility is scored as per the table below: • Good movement Score 1 • (Curled, sticking on wall, movement on petri plate or conical flask) • Moderate movement Score 2 • (Less vigor but more than 10 seconds pulses or peristaltic waves) • Resting Score 3 • (Less than 10 second pulses in head and body) • Apathetic Score 4 • (Head and body with less than 2 second pulses) • Faint movement of suckers Score 5 • (Movement of oral or ventral suckers only, whole body paralyzed) • Inert Score 6 • (No movement at all or dead) • (b) S. mansoni adult worms • (c) S. mansoni juvenile worms • (d) S. haemotobium adult worms • (e) Cytotoxicity against human MRC-5 cell line • (f) Cytotoxicity against human HepG2 cell lines

| SMILES | Cytotox MRC-5 (human MRC-5 cell line) [µM] | Cytotox HepG2 (human HepG2 cell lines) [µM] | IC50 ([1]; juvenile worms in vitro, IC50) [nM] | other results |
| --- | --- | --- | --- | --- |
| CCc1nc2cnc(-c3cccc(C(F)(F)F)c3)cn2c1-c1ccc(OC)c(O)c1 [Example 7, 2-methoxy-5-[2-ethyl-6-[3-(trifluoromethyl)phenyl]imidazo[1,2-a]pyrazin-3-yl]phenol] | >50 | >30 | – | – |
| CC(C)c1nc2cnc(-c3cccc(C(F)(F)F)c3)cn2c1-c1ccc(OP(=O)(O)O)cc1F [Example 3, 3-fluoro-4-[2-(propan-2-yl)-6-[3-(trifluoromethyl)phenyl]imidazo[1,2-a]pyrazin-3-yl]phenoxyphosphonic acid] | – | 9.2 | – | IC50 (S. mansoni adult worms): < 49 nM; IC50 [1]: 130 nM |
| CC(C)c1nn2ccc(-c3ccc(F)c(C(F)(F)F)c3)cc2c1-c1ccc2[nH]ncc2c1F [Example 55, 4-Fluoro-5-[5-(4-fluoro-3-trifluoromethyl-phenyl)-2-isopropylpyrazolo[1,5-a]pyridin-3-yl]-1H-indazole] | – | 11.1 | 22 | F. hepatica motility score after 24 h (F. hepatica adult fluke): (6, 6, 6) at 5 μM; F. hepatica motility score after 48 h (F. hepatica adult fluke): (6, 6, 6) at 5 μM; F. hepatica motility score after 72 h (F. hepatica adult fluke): (6, 6, 6) at 5 μM; IC50 (S. mansoni adult worms; adult worms in vitro): 28 nM |
| Cc1n[nH]c2ccc(-c3c(C(C)C)nc4cnc(-c5cccc(C(F)(F)F)c5)cn34)cc12 [Example 51, 2-Isopropyl-3-(3-methyl-1H-indazol-5-yl)-6-(3-trifluoromethyl-phenyl)-imidazo[1,2-a]pyrazine] | – | 10.3 | 830 | – |
| CC(C)c1nc2cnc(-c3cccc(C(F)(F)F)c3)cn2c1-c1ccc(O)cc1F [Example 9, 3-fluoro-4-[2-(propan-2-yl)-6-[3-(trifluoromethyl)phenyl]imidazo[1,2-a]pyrazin-3-yl]phenol] | 13.7 | 9 | – | – |
| CCc1nc2cnc(-c3cccc(C(F)(F)F)c3)cn2c1-c1ccc(O)cc1F [Example 8, 3-fluoro-4-[2-ethyl-6-[3-(trifluoromethyl)phenyl]imidazo[1,2-a]pyrazin-3-yl]phenol] | 17.3 | 18.7 | – | – |
| COc1ccc(-c2c(C)nc3ccc(-c4cccc(C(F)(F)F)c4)cn23)cc1O [Example 91, 2-methoxy-5-[2-methyl-6-[3-(trifluoromethyl)phenyl]imidazo[1,2-a]pyridin-3-yl]phenol] | – | – | 530 | – |
| COc1ccc(-c2c(C(C)C)nc3cnc(-c4cccc(C(F)(F)F)c4)cn23)cc1O [Example 1, 2-methoxy-5-[2-(propan-2-yl)-6-[3-(trifluoromethyl)phenyl]imidazo[1,2-a]pyrazin-3-yl]phenol] | 21.8 | >11.1 | – | – |
| CC(C)c1nc2ccc(-c3cccc(C(F)(F)F)c3)cn2c1-c1ccc(O)cc1F [Example 94, 3-fluoro-4-[2-isopropyl-6-[3-(trifluoromethyl)phenyl]imidazo[1,2-a]pyridin-3-yl]phenol] | – | 10.6 | 250 | F. hepatica motility score after 24 h (F. hepatica adult fluke): (6, 6, 6); F. hepatica motility score after 48 h (F. hepatica adult fluke): (6, 6, 6); F. hepatica motility score after 72 h (F. hepatica adult fluke): (6, 6, 6) |
| Cc1nc2cnc(-c3cccc(C(F)(F)F)c3)cn2c1-c1ccc(O)cc1F [Example 6, 3-fluoro-4-[2-methyl-6-[3-(trifluoromethyl)phenyl]imidazo[1,2-a]pyrazin-3-yl]phenol] | 15.8 | – | – | – |
| COc1ccc(-c2c(C(C)C)nc3cnc(-c4cccc(C(F)(F)F)c4)cn23)cc1OP(=O)(O)O [Example 28, 2-methoxy-5-[2-(propan-2-yl)-6-[3-(trifluoromethyl)phenyl]imidazo[1,2-a]pyrazin-3-yl]phenoxyphosphonic acid] | – | 19.2 | – | IC50 [1]: 183 nM |
| CC(C)c1nc2cnc(-c3ccc(F)c(C(F)(F)F)c3)cn2c1-c1c(F)cc(OP(=O)(O)O)cc1F [Example 40, 3,5-difluoro-4-{6-[4-fluoro-3-(trifluoromethyl)phenyl]-2-(propan-2-yl)imidazo[1,2-a]pyrazin-3-yl}phenoxyphosphonic acid] | – | 6.5 | – | IC50 (S. mansoni adult worms): 27 nM; IC50 [1]: 25 nM |
| O=P(O)(O)Oc1cc(F)c(-c2c(C3CC3)nc3cnc(-c4ccc(F)c(C(F)(F)F)c4)cn23)c(F)c1 [Example 62, Phosphoric acid mono-{4-[2-cyclopropyl-6-(4-fluoro-3-trifluoromethyl-phenyl)-imidazo[1,2-a]pyrazin-3-yl]-3,5-difluoro-phenyl} ester] | – | 14.8 | – | IC50 [1]: 3.7 nM |
| Cc1nc2cnc(-c3ccc(F)c(C(F)(F)F)c3)cn2c1-c1c(F)cc(OP(=O)(O)O)cc1F [Example 41, 3,5-difluoro-4-{6-[4-fluoro-3-(trifluoromethyl)phenyl]-2-methyl-imidazo[1,2-a]pyrazin-3-yl}phenoxyphosphonic acid] | – | 6.8 | – | IC50 [1]: 100 nM |
| Cc1nc2cnc(-c3ccc(F)c(C(F)(F)F)c3)cn2c1-c1ccc(O)cc1F [Example 10, 3-fluoro-4-[2-methyl-6-[4-fluoro-3-(trifluoromethyl)phenyl]imidazo[1,2-a]pyrazin-3-yl]phenol] | 14.4 | >11.1 | – | – |
| Cc1nc2ccc(-c3cccc(C(F)(F)F)c3)cn2c1-c1ccc(O)cc1F [Example 93, 3-fluoro-4-[2-methyl-6-[3-(trifluoromethyl)phenyl]imidazo[1,2-a]pyridin-3-yl]phenol] | – | – | 830 | – |
| COc1ccc(-c2c(C(C)C)nc3ccc(-c4cccc(C(F)(F)F)c4)cn23)cc1O [Example 92, 2-methoxy-5-[2-isopropyl-6-[3-(trifluoromethyl)phenyl]imidazo[1,2-a]pyridin-3-yl]phenol] | – | – | 360 | – |
